Assay results as given in patent publication US20030068615A1, “Polypeptides that bind HIV gp120 and related nucleic acids, antibodies, compositions, and methods of use” (priority 1999, published 2003).
Where two headings read alike, the source gives them in different places.

Experiments:
[1] = system: HIV-1 virus strains (e.g. YU2); details: CCR5 alanine mutant, work of others, cited from earlier work; for percentage compared to wild-type CCR5, 89.6: HIV-1 strain 89.6; for percentage compared to wild-type CCR5, ADA: HIV-1 strain ADA; for percentage compared to wild-type CCR5, DH123: HIV-1 strain DH123; for percentage compared to wild-type CCR5, JF-RL: HIV-1 strain JF-RL; for percentage compared to wild-type CCR5, YU2: HIV-1 strain YU2
HIV-1LAI envelope gp120 = HIV-1LAI envelope gp120 (Human immunodeficiency virus type 1 group M subtype B, UniProt P03377); format: binding; details: for Counts per 20′ Average-background: CCR5 18-mer scan, radiolabeled HIV-1LAI gp120
[2] = STRL33 18-mer scan, background subtracted, first of two count columns
[3] = STRL33 18-mer scan, background subtracted, second of two count columns
[4] = Panel E, 9-mers and 12-mers of CD4, empty control 571
[5] = Panel C, 15-mers and 18-mers of CD4, empty control 556
[6] = Panel A, 21-mers of CD4, empty control 515 and 617
[7] = human CD4 21-mer scan, empty control 2075
[8] = Panel D, 9-mers and 12-mers of CD4, empty control […]
[9] = Panel B, 15-mers and 18-mers of CD4, empty control 575
[10] = CXCR4 18-mer scan, background subtracted, empty control 0
[11] = CXCR4 18-mer scan, empty control 412

MDYAVSSPIYDINYYTSE: CCR5 (1-18) variant Q4A
percentage compared to wild-type CCR5, 89.6 [1]: 67% | percentage compared to wild-type CCR5, ADA [1]: 132% | percentage compared to wild-type CCR5, DH123 [1]: 105% | percentage compared to wild-type CCR5, JF-RL [1]: 111% | percentage compared to wild-type CCR5, YU2 [1]: 85%

MDYQVSSPIADINYYTSE: CCR5 (1-18) variant Y10A
percentage compared to wild-type CCR5, 89.6 [1]: 10% | percentage compared to wild-type CCR5, ADA [1]: 50% | percentage compared to wild-type CCR5, DH123 [1]: 3% | percentage compared to wild-type CCR5, JF-RL [1]: 26% | percentage compared to wild-type CCR5, YU2 [1]: 2%

VFVCGLVGNSLVLVISIF [STRL33 segment 41-58]
radioactive counts recorded in twenty minutes (HIV-1LAI envelope gp120; [2]): 570.5 counts | radioactive counts recorded in twenty minutes (HIV-1LAI envelope gp120; [3]): 284.5 counts

VIIKTLLHAGGFQKERSL
radioactive counts recorded in twenty minutes (HIV-1LAI envelope gp120; [2]): 961.5 counts | radioactive counts recorded in twenty minutes (HIV-1LAI envelope gp120; [3]): 682.5 counts

VISLLVSLPQIIYGNVFN
radioactive counts recorded in twenty minutes (HIV-1LAI envelope gp120; [2]): −60.5 counts | radioactive counts recorded in twenty minutes (HIV-1LAI envelope gp120; [3]): −127.5 counts

VKQIAARLLPPLYSLVFI [CCR5 segment 25-42]
Counts per 20′ Average-background (HIV-1LAI envelope gp120; background subtracted): 18 counts per 20′

VLAFQKASS
COUNTS of radiolabeled gp120 retained (HIV-1LAI envelope gp120; [4]): 466 counts

VLAFQKASSIVY
COUNTS of radiolabeled gp120 retained (HIV-1LAI envelope gp120; [4]): 548 counts

VLAFQKASSIVYKKE
COUNTS of radiolabeled gp120 retained (HIV-1LAI envelope gp120; [5]): 634 counts

VLAFQKASSIVYKKEGEQ
COUNTS of radiolabeled gp120 retained (HIV-1LAI envelope gp120; [5]): 549 counts

VLAFQKASSIVYKKEGEQVEF
COUNTS of radiolabeled gp120 retained (HIV-1LAI envelope gp120; [6]): 1793 counts | number of radioactive decays (counts) counted (HIV-1LAI envelope gp120; [7]): 3566 counts

VLGGVAGLLLFIGLGIFFCVR [human CD4 401-421]
number of radioactive decays (counts) counted (HIV-1LAI envelope gp120; [7]): 3738 counts

VLPTWSTPVQPMALIVLGGVA
number of radioactive decays (counts) counted (HIV-1LAI envelope gp120; [7]): 2197 counts

VLQNQKKVE
COUNTS of radiolabeled gp120 retained (HIV-1LAI envelope gp120; [4]): 556 counts

VLQNQKKVEFKI
COUNTS of radiolabeled gp120 retained (HIV-1LAI envelope gp120; [4]): 503 counts

VLQNQKKVEFKIDIV
COUNTS of radiolabeled gp120 retained (HIV-1LAI envelope gp120; [5]): 605 counts

VLQNQKKVEFKIDIVVLA
COUNTS of radiolabeled gp120 retained (HIV-1LAI envelope gp120; [5]): 724 counts

VMRATQLQKNLTCEVWGPTSP [human CD4 316-336]
number of radioactive decays (counts) counted (HIV-1LAI envelope gp120; [7]): 2144 counts

VMVICYSGILKTLLRCRN [CCR5 segment 209-]
Counts per 20′ Average-background (HIV-1LAI envelope gp120; background subtracted): −8 counts per 20′

VQLLVFGLT
COUNTS of radiolabeled gp120 retained (HIV-1LAI envelope gp120; [8]): 815 counts

VQLLVFGLTANS
COUNTS of radiolabeled gp120 retained (HIV-1LAI envelope gp120; [8]): 747 counts

VQLLVFGLTANSDTH
COUNTS of radiolabeled gp120 retained (HIV-1LAI envelope gp120; [9]): 1006 counts

VQLLVFGLTANSDTHLLQ
COUNTS of radiolabeled gp120 retained (HIV-1LAI envelope gp120; [9]): 673 counts

VSEADDRYICDRFYPNDL [CXCR4 segment 177-194]
radioactive counts recorded in twenty minutes (HIV-1LAI envelope gp120; [10]): 157 counts | radioactive counts recorded in twenty minutes (HIV-1LAI envelope gp120; [11]): 569 counts

VSKREKAVWVLNPEAGMWQCL [human CD4 351-371]
number of radioactive decays (counts) counted (HIV-1LAI envelope gp120; [7]): 2034 counts

VSSPIYDINYYTSEPCQK [CCR5 segment 5-22]
Counts per 20′ Average-background (HIV-1LAI envelope gp120; background subtracted): 383 counts per 20′

VSVKRVTQDPKLQMGKKLPLH
number of radioactive decays (counts) counted (HIV-1LAI envelope gp120): 1848 counts

VTETLGMTHCCINPIIYA [CCR5 segment 281-]
Counts per 20′ Average-background (HIV-1LAI envelope gp120; background subtracted): 15 counts per 20′

VTQDPKLQMGKKLPLHLTLPQ [human CD4 266-286]
number of radioactive decays (counts) counted (HIV-1LAI envelope gp120; [7]): 2075 counts

VVFQFQHIMVGLILPGIV
radioactive counts recorded in twenty minutes (HIV-1LAI envelope gp120; [10]): 589 counts | radioactive counts recorded in twenty minutes (HIV-1LAI envelope gp120; [11]): 1001 counts

VVLAFQKAS
COUNTS of radiolabeled gp120 retained (HIV-1LAI envelope gp120; [4]): 600 counts

VVLAFQKASSIV
COUNTS of radiolabeled gp120 retained (HIV-1LAI envelope gp120; [4]): 567 counts

VVLAFQKASSIVYKK
COUNTS of radiolabeled gp120 retained (HIV-1LAI envelope gp120; [5]): 577 counts

VVLAFQKASSIVYKKEGE
COUNTS of radiolabeled gp120 retained (HIV-1LAI envelope gp120; [5]): 560 counts

VVLAFQKASSIVYKKEGEQVE
COUNTS of radiolabeled gp120 retained (HIV-1LAI envelope gp120; [6]): 772 counts
